What was measured:
Format in all cases: cell-based, Candida albicans
C. albicans SC5314 = assay: Initial peptide uptake rate; conditions: SC 5314; cells grown in YNB-SG; 50 mM potassium phosphate buffer (pH 5.0 or 6.5) + 1% glucose, 30°C, 100 μM peptide, residual peptide by TNBS A420, slope 0- to 10-min
Method: (§1) Yeast cells grown exponentially in the YNB-SG medium were harvested by centrifugation (3000 ×g, 5 min), washed with 50 mM potassium phosphate buffer (pH 5.0 or 6.5), and suspended in the same buffer containing 1% glucose, to a final cell density corresponding to A660 ≅ 1.0. The cell suspension was incubated at 30°C. After 10 min, an oligopeptide solution was added, to give a final concentration of 100 μM. At that moment and at 5 min intervals thereafter, 2 mL samples of the cell suspension were withdrawn, immediately filtered through the Whatman GF/A filters and the filtrates were used to determine the residual peptide concentration. Then, the 1 mL portions of the filtrates were taken and combined with 1.25 mL aliquots of a solution containing 4% Na2B4O7 × 10 H2O and 0.8 mg mL^-1 of 2,4,6-trinitrobenzenesulfonate. The reaction was carried out at 37°C for 30 min. The A420 values were measured and the peptide concentration was read from the appropriate standard curve. Data were plotted as nanomoles of an oligopeptide, taken up by 1 mg (dry weight) of cells versus time. The initial uptake velocities were determined from the slopes of the linear part of the curves, in the 0- to 10-min region.

C. albicans opt1Δ = assay: Initial peptide uptake rate; conditions: 50 mM potassium phosphate buffer (pH 5.0 or 6.5) + 1% glucose, 30°C, 100 μM peptide, TNBS A420, slope 0- to 10-min
Method: as §1

[1] = tested on: C. albicans opt1–opt5Δ ptr2Δ ptr22Δ; assay: Initial peptide uptake rate; conditions: 50 mM potassium phosphate buffer (pH 5.0 or 6.5) + 1% glucose, 30°C, 100 μM peptide, TNBS A420, slope 0- to 10-min
Method: as §1

C. albicans opt1–opt5Δ = assay: Initial peptide uptake rate; conditions: 50 mM potassium phosphate buffer (pH 5.0 or 6.5) + 1% glucose, 30°C, 100 μM peptide, TNBS A420, slope 0- to 10-min
Method: as §1

C. albicans opt2Δ opt3Δ = assay: Initial peptide uptake rate; conditions: 50 mM potassium phosphate buffer (pH 5.0 or 6.5) + 1% glucose, 30°C, 100 μM peptide, TNBS A420, slope 0- to 10-min
Method: as §1

C. albicans opt4Δ = assay: Initial peptide uptake rate; conditions: 50 mM potassium phosphate buffer (pH 5.0 or 6.5) + 1% glucose, 30°C, 100 μM peptide, TNBS A420, slope 0- to 10-min
Method: as §1

C. albicans opt5Δ = assay: Initial peptide uptake rate; conditions: 50 mM potassium phosphate buffer (pH 5.0 or 6.5) + 1% glucose, 30°C, 100 μM peptide, TNBS A420, slope 0- to 10-min
Method: as §1

C. albicans ptr2Δ ptr22Δ = assay: Initial peptide uptake rate; conditions: 50 mM potassium phosphate buffer (pH 5.0 or 6.5) + 1% glucose, 30°C, 100 μM peptide, TNBS A420, slope 0- to 10-min
Method: as §1

[2] = tested on: C. albicans isolates NF1-3 and LNF1-3; assay: Initial peptide uptake rate by isolates resistant to F2/F3; conditions: all six isolates NF1-3, LNF1-3; Figure 4
Method: as §1
It is therefore clear that the diminished sensitivity of all six isolates to F2 and F3 was due to the reduced uptake, most likely by permease(s) of the PTR system.

Q: What does the source list for Ala-Ala [(Ala)2, reference compound]?
A: Uptake rate ± SD (C. albicans SC5314): 5.12 ± 0.32 nmol min^-1 (mg dry weight)^-1; Uptake rate ± SD (C. albicans opt1Δ): 4.50 ± 0.36 nmol min^-1 (mg dry weight)^-1; Uptake rate ± SD [1]: <0.1 nmol min^-1 (mg dry weight)^-1; Uptake rate ± SD (C. albicans opt1–opt5Δ): 5.88 ± 0.40 nmol min^-1 (mg dry weight)^-1; Uptake rate ± SD (C. albicans opt2Δ opt3Δ): 3.96 ± 0.29 nmol min^-1 (mg dry weight)^-1; Uptake rate ± SD (C. albicans opt4Δ): 4.83 ± 0.31 nmol min^-1 (mg dry weight)^-1; Uptake rate ± SD (C. albicans opt5Δ): 5.00 ± 0.38 nmol min^-1 (mg dry weight)^-1; Uptake rate ± SD (C. albicans ptr2Δ ptr22Δ): <0.1 nmol min^-1 (mg dry weight)^-1; Initial uptake rate relative to wild type SC5314 cells [2]: remarkably lower

Q: What does the source list for “Ala-Ala-Ala [(Ala)3, reference compound]”?
A: Uptake rate ± SD (C. albicans SC5314): 5.62 ± 0.33 nmol min^-1 (mg dry weight)^-1; Uptake rate ± SD (C. albicans opt1Δ): 4.89 ± 0.28 nmol min^-1 (mg dry weight)^-1; Uptake rate ± SD [1]: <0.1 nmol min^-1 (mg dry weight)^-1; Uptake rate ± SD (C. albicans opt1–opt5Δ): 4.99 ± 0.36 nmol min^-1 (mg dry weight)^-1; Uptake rate ± SD (C. albicans opt2Δ opt3Δ): 4.16 ± 0.22 nmol min^-1 (mg dry weight)^-1; Uptake rate ± SD (C. albicans opt4Δ): 3.22 ± 0.27 nmol min^-1 (mg dry weight)^-1; Uptake rate ± SD (C. albicans opt5Δ): 3.61 ± 0.30 nmol min^-1 (mg dry weight)^-1; Uptake rate ± SD (C. albicans ptr2Δ ptr22Δ): <0.1 nmol min^-1 (mg dry weight)^-1; Initial uptake rate relative to wild type SC5314 cells [2]: lower

Q: For “Ala-Ala-Ala-Ala [(Ala)4, model alanyl oligopeptide, reference compound]”, which “Uptake rate ± SD” value (C. albicans SC5314) is on record?
A: Its value is 3.75 ± 0.19 nmol min^-1 (mg dry weight)^-1.

Q: And the “Uptake rate ± SD” value (C. albicans opt1Δ)?
A: Its value is 0.79 ± 0.09 nmol min^-1 (mg dry weight)^-1.

Q: What about the “Uptake rate ± SD” value [1] of the same substance?
A: The value was <0.1 nmol min^-1 (mg dry weight)^-1.

Q: And the “Uptake rate ± SD” value (C. albicans opt1–opt5Δ)?
A: Its value is 0.12 ± 0.02 nmol min^-1 (mg dry weight)^-1.

Q: And the “Uptake rate ± SD” value (C. albicans opt2Δ opt3Δ)?
A: Its value is 1.93 ± 0.15 nmol min^-1 (mg dry weight)^-1.

Q: What about the “Uptake rate ± SD” value (C. albicans opt4Δ) of the same substance?
A: Its value is 1.72 ± 0.11 nmol min^-1 (mg dry weight)^-1.

Q: And the “Uptake rate ± SD” value (C. albicans opt5Δ)?
A: Its value is 1.55 ± 0.11 nmol min^-1 (mg dry weight)^-1.

Q: And the “Uptake rate ± SD” value (C. albicans ptr2Δ ptr22Δ)?
A: The value was 2.72 ± 0.16 nmol min^-1 (mg dry weight)^-1.

Q: And the “Initial uptake rate relative to wild type SC5314 cells” value [2]?
A: The value was “nearly the same or even somewhat higher”.
